US7387796B2, “Stable compositions of S-adenosyl-l-methionine with dextran” (priority 2002, dated 2008)

Key:
[1] = in vivo; cited from earlier work
[2] = oral, alcoholic liver cirrhosis, compared with placebo treated group; cited from earlier work
[3] = oral administration, short term trial; cited from earlier work
[4] = patients with Alzheimer's disease, preliminary study; cited from earlier work
[5] = oral administration, patients with and without liver disease; cited from earlier work
[6] = oral administration, intrahepatic cholestasis; cited from earlier work
[7] = 10 ng/ml injected; sample left at room temperature in the light for 12 months, no special protection

C[S+](CC[C@H](N)C(=O)[O-])C[C@H]1O[C@@H](n2cnc3c(N)ncnc32)[C@H](O)[C@@H]1O (some centres unmarked) [SAM-e, S-adenosyl-1-methionine]
toxicity in clinical use [1]: absence of toxicity | overall mortality and/or progression to liver transplant [2]: 12% | clinical effect in primary fibromyalgia [3]: significant improvement | cognitive effect [4]: cognitive improvement | liver glutathione levels [5]: increases in liver glutathione levels | pruritus and biochemical markers of cholestasis [6]: improvements in both the pruritus as well as the biochemical markers of cholestasis | Area of HPLC peak [7]: 189251 | conc. [7]: 10 ng/mL
